Measurements reported in patent publication US5444042A, “Method of treatment of neurodegeneration with calpain inhibitors” (Cortex Pharmaceuticals, priority 1994, dated 1995).
Entries after “also recorded” stand apart in the source; their conditions may differ. Where a SMILES comes first, the peptide text is derived from it. The star is where a group is joined. Boc = CC(C)(C)OC(=O)*; CH2Cl = ClC*

Key:
N18-RE-105 cells = assay: Glutamate-induced cell death, MTT conversion (Example 5); assay type: cell-based; conditions: 5 mM glutamate, 19 hours; for blue formazan product relative to control without glutamate: inhibitor 3 μg/ml
Protocol: Stock cultures of N18-RE-105 cells were maintained in Dulbecco's modified Eagle's medium (DMEM) containing 10% fetal bovine serum (FBS) and supplemented with hypoxanthine, aminopterin and thymidine (HAT). Subconfluent cultures were split and plated into 96-well plates. Twenty-four hours after plating the cells were exposed to fresh media containing glutamate and various concentrations of Calpain inhibitors. Control cells were not treated with glutamate. Conversion of MTT was measured 19 hours later as described. Nineteen hours after the onset of exposure, cell viability was quantitated by measuring the extent to which the cells convert 3(4,5-dimethylthiazol-2-yl)-2-5-diphenyltetrazolium bromide (MTT) to a blue formazan product, which occurs in the mitochondria of living but not dead cells (Pauwels et al., 1988). A higher absorbance is indicative of greater cell viability.

Stability in plasma = assay type: in vitro ADME; conditions: unit assumed
Description: We determined the haft-life of several Peptide Keto-Compounds in both plasma and liver homogenates.

hippocampal slices [1] = assay: Hippocampal slice evoked potential recovery after anoxia (Example 7B); assay type: cell-based, rat
Protocol: As in Example 7A, hippocampal slices (400 μm) were prepared from Sprague Dawley rats (6-7 weeks) and maintained in an interface chamber at 35° C. using conventional techniques, i.e. the lower surface of the slice received a constant perfusion (0.5 ml/min) of an artificial cerebrospinal fluid (ACSF), while the upper surface was exposed to a moist atmosphere of O2 :CO2 (95%:5%) exchanged at a rate of 2 L/min. The ACSF medium contains (in mM): NaCl (124), KCl (3), KHPO4 (1.25), MgSO4 (2.5), CaCl2 (3.4), NaHCO3 (26) and D-Glucose (10). Field excitatory post-synaptic responses were recorded from stratum radiatum of CA1b in response to stimulation of Schaffer-commissural fibers in CA1a or CA1c. The depth of the recording electrode was optimized and evoked responses were collected at a rate of one evoked response every 30 seconds.
After establishing a stable baseline of evoked responses (approximately 10 minutes), ACSF containing Calpain Inhibitor was washed into the chamber and slices were incubated for a period of one hour. After incubation, evoked responses were again recorded and the change in the amplitude of the responses from baseline levels was noted. No effect of the inhibitors tested on baseline evoked responses was observed.
For anoxia experiments, incubation in the drug-containing medium was followed by replacement of the O2 :CO2 (95%:5%) atmosphere with N2 :CO2 (95%:5%). Slices were exposed to this anoxic environment until disappearance of the pre-synaptic fiber volley and for two minutes (severe anoxia) longer (total time in anoxic environment approximately 7-8 minutes in control case). Effects of Calpain Inhibitors on the functional recovery of the slices after the anoxic episode were then measured. Recovery of the evoked potential (EPSP) slope and amplitude by the drug treated slices can be compared to control slices to determine the relative efficacy of various Calpain Inhibitors.

hippocampal slices [2] = assay: Hippocampal slice survival after 10 min anoxia (Example 7A); assay type: cell-based, rat
Protocol: Hippocampal slices (400 um) were prepared from Sprague Dawley rats (6 to 7 weeks) and maintained in an interface chamber at 35° C. using conventional techniques, i.e., the lower surface of the slice received a constant perfusion (0.5 ml/min) of ACSF, while the upper surface was exposed to a moist atmosphere of O2 :CO2 (95%:5%) exchanged at a rate of 2 L/min. The ACSF medium contains (in mM): NaCl (124), KCl (3), KHPO4 (2.5), CaCl (3.4), NaHCO3 (26) and D-Glucose (10). Field excitatory post-synaptic responses were recorded from stratum radiatum of CAlb in response to stimulation of Schaffer-commissural fibers in CAla or CAlc. The depth of the recording electrode was optimized and evoked responses were collected at a rate of one evoked response every 30 seconds.
For the initial screening procedure, 14 to 16 slices are harvested from the hippocampus of a single rat and placed in a common ACSF bath. Each slice is tested in sequence to determine the magnitude of its pre-anoxic evoked response. Five stimulation pulses (each 0.1 ms (millisecond) in duration) were presented over a 15 second interval. The largest evoked response was noted and recorded for each slice.
After the one hour drug incubation period, the oxygen-enriched atmosphere of the chamber was made anoxic by substituting nitrogen for oxygen (N2 =95%; CO^2 =5%). The slices were retained in this anoxic environment for 10 minutes, following which the oxygen-enriched atmosphere (O^2 =95%; CO2 =5%) was reestablished.
The slices were given the opportunity to recover for 30 minutes following reoxygenation whereupon each was stimulated and the maximum evoked potential determined, as described above during the pre-anoxia period. Those slices which, after anoxia, produced a maximum evoked potential of greater than 50% of that observed prior to anoxia were defined as surviving slices.

Chym = Chym (Bos taurus, UniProt P00766); assay: Chym KI (Table 1B(ii)); assay type: biochemical
Description: (§1) We tested the ability of an additional group of Peptide Keto-Compounds to inhibit several proteases in order to evaluate their specificity for Calpain.

Calpain II = Calpain II KI (Table 1B(ii)); assay type: biochemical
Description: as §1

[3] = Concentration 100, ten minutes anoxia

SMILES	blue formazan product relative to control without glutamate (N18-RE-105 cells) [%]	t1/2 plasma (Stability in plasma) [min]	Ki (Chym) [nM]	Ki (Calpain II) [nM]	further results
CCOC(=O)C(=O)C(CC)NC(=O)[C@H](C)NC(=O)[C@H](C)NC(=O)OCc1ccccc1 (mixture of isomers) [Z-Ala-Ala-DL-Abu-COOEt, Z-Ala-Ala-DL-Abu-CO2 Et]	≥ 100				
CCOC(=O)C(=O)[C@H](CC)NC(=O)[C@H](CC(C)C)NC(=O)OCc1ccccc1 (racemic) [Z-Leu-Abu-COOEt, Z-Leu-DL-Abu-COOEt]		2.8	> 100000	400	% Recovery of synaptic transmission after anoxia (hippocampal slices [1]; [3]): 55%; recovery of EPSP amplitude from severe anoxia (FIG. 4) (hippocampal slices [1]; severe anoxia, 2 minutes post fiber volley disappearance): superior to that seen with CI1; protection of slices from anoxia (FIG. 3) (hippocampal slices [2]; 10 minutes anoxic atmosphere, listed as CX218): protected from the effects of anoxia; also recorded: significantly more effective; Survival of slices after ten minutes anoxia (hippocampal slices [2]; Dose 100 μM, incubation 1 hour): 70%
CCCC(NC(=O)[C@H](CC(C)C)NC(=O)OCc1ccccc1)C(=O)C(=O)OCC (mixture of isomers) [Z-Leu-Nva-COOEt, Z-Leu-DL-Nva-COOEt]		2.8	160000	1200	
CC(C)CC(NC(=O)CNC(=O)OC(C)(C)C)C(=O)NC(Cc1ccccc1)C(=O)CCl (stereo not drawn) [Boc-Gly-Leu-Phe-CH2 Cl] (Boc-Gly-Leu-Phe-CH2Cl; configuration not given here)					% Recovery of synaptic transmission after anoxia (hippocampal slices [1]; Concentration 50, ten minutes anoxia): 30%; Survival of slices after ten minutes anoxia (hippocampal slices [2]; Dose 50 μM, incubation 1 hour): 50%
N=C(N)SCCCOc1oc(=O)c2ccccc2c1Cl [CiTprOIC, 4-chloro-3-(3-isothiureidopropoxy)isocoumarin]	≥ 100				
CC(=O)N[C@@H](CC(C)C)C(=O)N[C@@H](CC(C)C)C(=O)N[C@H](C=O)CCCNC(=N)N [Leupeptin, Ac-Leu-Leu-Arg-H, reference compound]					protection against glutamate toxicity (N18-RE-105 cells; leupeptin 5 μg/ml): protect N18-RE-105 cells against glutamate toxicity; Survival of slices after ten minutes anoxia (hippocampal slices [2]; Dose 1000 μM, incubation 3 hours): 50%
N=C(N)SCCCOc1oc(=O)c2cc(N)ccc2c1Cl [NH2 -CiTPrOIC (ACITIC), 7-amino-4-chloro-3-(3-isothiureidopropoxy)isocoumarin]	≥ 100				% Recovery of synaptic transmission after anoxia (hippocampal slices [1]; Concentration 20, ten minutes anoxia): 60%; Survival of slices after ten minutes anoxia (hippocampal slices [2]; Dose 20 μM, incubation 1 hour): 50%
CCCCC(NC(=O)C(CC(C)C)NC(=O)OCc1ccccc1)C(=O)C(=O)OCC (stereo not drawn) [Z-Leu-Nle-COOEt, Z-Leu-NLeu-CO2 Et]		3.7		180	
CCOC(=O)C(=O)C(Cc1ccccc1)NC(=O)C(CC(C)C)NC(=O)OCc1ccccc1 (stereo not drawn) [Z-Leu-Phe-COOEt]		7.8	25	400	% Recovery of synaptic transmission after anoxia (hippocampal slices [1]; [3]): 38%; period of anoxia required to produce fiber volley disappearance (FIG. 6) (hippocampal slices [1]; hippocampal slices): substantially lengthens the period of exposure to anoxia required to produce FVD
